Measured values taken from US20100196510A1, “COMPOSITION AND TREATMENT” (priority 2007, published 2010).

Tests used:
[1] = tested on: rat sensory neurones (dorsal root ganglia); assay: Neurite length of sensory neurones (anti β-Tubulin) in cisplatin-induced toxicity model; assay type: cell-based; details: for Mean neurite Length / neurite length, % Control without cisplatin: 10 ng/ml + cisplatin 3 μg/ml; for effect on cisplatin-induced loss of neurites (in words): 10 ng/ml, cisplatin 3 μg/ml
Procedure: (§1) The low molecular weight glycosaminoglycans are referred to in the examples as 2400 D.
(§2) 1. neurone cell bodies stained with an anti MAP 2 antibody (microtubule associated protein, and 2. neurite network density stained with an anti β-Tubulin antibody
Rat sensory neurones were prepared according to the method described by Hall et al 1997(3). Briefly, a female rat (15 days gestation) was killed by cervical dislocation (Rats Wistar; Janvier, Le Genest-St-Isle, France) and the foetuses removed from the uterus. Their spinal cords with the dorsal root ganglia (DRG) were removed and placed in ice-cold medium of Leibovitz (L15, Fisher 11415-049) containing Penicillin 50 Ul/ml—Streptomycin 50 μg/ml (PS, 1%) and bovine serum albumin (BSA 1%, Sigma A6003). The DRG were recovered and dissociated by trypsinisation for 20 min at 37° C. (trypsin EDTA 10×, 10%, Fisher 15400054) diluted in PBS without calcium and magnesium (Fisher 2007-03). […] The cell suspension was triturated with a 10 ml pipette and centrifuged at 350×g for 10 min at room temperature. The pellet of dissociated cells was then resuspended in defined culture medium.
Viable cells were counted in a Neubauer cytometer using the trypan blue exclusion test (Sigma) and seeded at a density of 30 000 cells/well in 96 well-plates (Nunc). Wells were pre-coated with poly-L-lysine (10 μg/ml, Sigma P2636) in ultra pure sterile water (Merck Eurolab 60759.01).
Cells were allowed to adhere for 2 h and maintained in a humidified incubator at 37° C. in 5% CO2/95% air atmosphere.
(§3) Six wells per condition were carried out to assess neuronal survival. After 48 hours and 72 hours of incubation, the neuronal cells were fixed for 5 minutes in an ethanol/acetic acid solution (95%/5%) at −20° C. and rinsed 3 times in PBS.
(§4) Cell bodies of sensory neurones were labelled by monoclonal anti MAP-2 antibody (Sigma M4403, see photograph 1A) and the neurite of sensory neurones were labelled by monoclonal β-Tubulin antibody (Sigma T8660). These antibodies were diluted at 1:400 in incubation solution (PBS with 5% of FCS and 0.1% of saponin, Sigma S-7900). These antibodies specifically label neurone cell bodies and neurites, respectively.
After 2 hours of incubation, the cells were washed in PBS and incubated with Alexa Fluor 488 goat anti mouse IgG (Molecular Probes A11001) diluted at 1:300 in incubation solution to reveal the MAP-2 and the β-Tubulin antibodies. Cell nuclei were stained with a fluorescent marker (Hoechst staining solution, SIGMA H6024, 1 μg/ml in incubation solution during 1 hour).
(§5) For each condition, 2 pictures per well (12 pictures per condition) were taken using In Cell Analyzer 1000 (Amersham Biosciences) controlled by the computer software In Cell Analyzer 1000 3.2. For the MAP-2 labelling, the magnification was ×10, for the β-Tubulin labelling, the magnification was ×20. For each labelling, all the images were taken in the same conditions.
(§6) Analysis of the number of cell bodies labelled with anti MAP-2 antibodies, and total length of neurites labelled with anti β-Tubulin antibodies, were carried out using In Cell Analyzer 1000 3.2.Workstation software. The results were expressed in percentage compared to the vehicle. The comparisons of each group were carried out using the unpaired T test.

[2] = tested on: rat sensory neurones (dorsal root ganglia); assay: Number of neuronal cell bodies per field (anti MAP-2) in cisplatin-induced toxicity model; assay type: cell-based; details: for number of cell bodies per field, Average / number of cell bodies, % Control without cisplatin: 10 ng/ml + cisplatin 3 μg/ml; for effect on cisplatin-induced loss of cell bodies (in words): 10 ng/ml, cisplatin 3 μg/ml
Procedure: as §1, §2
Briefly, a female rat (15 days gestation) was killed by cervical dislocation (Rats Wistar; Janvier, Le Genest-St-Isle, France) and the foetuses removed from the uterus. […] The DRG were recovered and dissociated by trypsinisation for 20 min at 37° C. […] The cell suspension was triturated with a 10 ml pipette and centrifuged at 350×g for 10 min at room temperature. The pellet of dissociated cells was then resuspended in defined culture medium.
Viable cells were counted in a Neubauer cytometer using the trypan blue exclusion test (Sigma) and seeded at a density of 30 000 cells/well in 96 well-plates (Nunc).
as §3, §4
Cell nuclei were stained with a fluorescent marker (Hoechst staining solution, SIGMA H6024, 1 μg/ml in incubation solution during 1 hour).
as §5, §6

NGF: Nerve Growth Factor, a specific growth factor for sensory neurons; reference compound
Mean neurite Length ([1]; 48 hours): 6362.44 μm | neurite length, % Control without cisplatin ([1]; 48 hours): 117% | Mean neurite Length ([1]; 72 hours): 6000.30 μm | neurite length, % Control without cisplatin ([1]; 72 hours): 113% | effect on cisplatin-induced loss of neurites (in words) ([1]; 48 hours): prevented cisplatin-induced loss of neurites | effect on cisplatin-induced loss of neurites (in words) ([1]; 72 hours): prevented cisplatin-induced loss of neurites | number of cell bodies per field, Average ([2]; 48 hours): 58.33 | number of cell bodies, % Control without cisplatin ([2]; 48 hours): 96% | number of cell bodies per field, Average ([2]; 72 hours): 54.92 | number of cell bodies, % Control without cisplatin ([2]; 72 hours): 102% | effect on cisplatin-induced loss of cell bodies (in words) ([2]; 48 hours): almost completely prevented cisplatin-induced loss of cell bodies | effect on cisplatin-induced loss of cell bodies (in words) ([2]; 72 hours section (text prints 48 hours)): completely prevented cisplatin-induced loss of cell bodies
